Measurements from patent publication US20250339399A1, “SUPRAMOLECULAR SELF-ASSEMBLY SYSTEM” (Beijing Creatron Institute of Pharmaceutical Research Co., …, priority 2022, published 2025).

Assays:
[1] = Guest molecule concentration after incubation in initial medium without polymer (Comparative Example 1); assay type: physicochemical; settings: 37° C.
Procedure, shortened: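 Dissolved guest content measured by HPLC of centrifuged supernatants (37° C., 13000 rpm, 5 min) sampled at 0.5 h, 3 h and 6 h. Incubation was polymer-free at 37° C.±0.5° C. in buffers of pH 2.0-7.4; nominal loading was set by maximum clinical dose.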

[2] = Binary supramolecular self-assembly systems of polymer and target: guest concentration over incubation time (Comparative Example 2); assay type: physicochemical; settings: for Concentration of guest molecule in solution / Times that of the initial medium: 6 h
Method: Experiments were conducted according to the steps in Comparative Example 1, and quantitative analysis was carried out using the analytical method for each target to investigate the regulation ability […] stacking.

[3] = Binary (carrier), ternary and quaternary supramolecular self-assembly systems of polymer, carrier building block and target: guest concentration over incubation time (Examples 1-56); assay type: physicochemical
Method: pH 2.0 hydrochloric acid, pH 4.5 acetate, and pH 6.5, pH 6.8, or pH 7.4 phosphate buffer solutions were prepared. The selection of each initial medium followed the principle that the solubility in the initial medium of the selected targets (or active ingredients) should low enough, but should meet the detection sensitivity and accuracy requirements of the corresponding analytical methods. Each buffer as initial media was placed in a 50 ml test tube with a stopper, shaken in a constant temperature air shaker at 37° C.±0.5° C., with an amplitude of 200 rpm, and incubated for 1 hour. […] Samples were taken at 0.5 h, 3 h and 6 h after incubation, centrifuged at 37° C., 13000 rpm for 5 minutes, and the supernatant was diluted at least 10 times with the mobile phase under the target analyte analytical method, filtered, the initial filtrate was discarded, and the continued filtrate was used as the test solution for injection analysis. The corresponding HPLC method under each target object item in Table 8 was used to determine the content of each target substance. When the solubility of the target in the initial medium is below the quantitative limit of the analytical method, a small amount of surfactant, such as sodium dodecyl sulfate (SDS), Tween20, or Tween80, can be added appropriately.
Experiments were conducted according to the steps in Comparative Example 1, and quantitative analysis was carried out using the analytical method for each target to investigate the regulation ability of each binary supramolecular self-assembly system built from 0.5% polymer and target on guest molecules stacking.
Ternary supramolecular self-assembly systems based on different polymers, carrier building blocks, and targets were built according to the experimental scheme in Table 12, to investigate the influence of synergistic regulation of the carrier building blocks and the polymers on the stacking of target molecules, as well as the stability of the supramolecular self-assembly systems jointly built by them over incubation time. The initial medium, quantitative analysis method, pre-treatment method, and initial theoretical concentration of the target, corresponding to each target molecule in the experiment, were consistent with those in Comparative Examples 1 and 2. After a target was added to the system, the target was uniformly dispersed by ultrasonication at 37° C. for half an hour and then shaken in a 37° C. constant temperature air shaker, and samples were collected after different incubation time, i.e. 0.5 h, 1 h, 2 h, 3 h, 4 h, and 6 h.

[4] = cited from earlier work
[5] = binary, no polymer: 0.5% 301, 6 h
[6] = binary: 310, % not stated at the place, 6 h
[7] = binary: 312, % not stated at the place, 6 h
[8] = binary system with 0.5% polymer 101, incubation 0.5 h
[9] = binary system with 0.5% polymer 101, incubation 3 h
[10] = binary system with 0.5% polymer 101, incubation 6 h
[11] = binary system with 0.5% polymer 102, incubation 0.5 h
[12] = binary system with 0.5% polymer 102, incubation 3 h
[13] = binary system with 0.5% polymer 102, incubation 6 h
[14] = binary system with 0.5% polymer 103, incubation 0.5 h
[15] = binary system with 0.5% polymer 103, incubation 3 h
[16] = binary system with 0.5% polymer 103, incubation 6 h
[17] = binary system with 0.5% polymer 106, incubation 0.5 h
[18] = binary system with 0.5% polymer 106, incubation 3 h
[19] = binary system with 0.5% polymer 106, incubation 6 h
[20] = binary system with 0.5% polymer 107, incubation 0.5 h
[21] = binary system with 0.5% polymer 107, incubation 3 h
[22] = binary system with 0.5% polymer 107, incubation 6 h
[23] = binary system with 0.5% polymer 110, incubation 0.5 h
[24] = binary system with 0.5% polymer 110, incubation 3 h
[25] = binary system with 0.5% polymer 110, incubation 6 h

Row | Compound | Concentration of guest molecule measured after different incubated time ([1]; 0.5 h, pH 6.8 phosphate buffer) | Concentration of guest molecule measured after different incubated time ([1]; 3 h, pH 6.8 phosphate buffer) | Concentration of guest molecule measured after different incubated time ([1]; 6 h, pH 6.8 phosphate buffer) | Times that of the initial medium ([2]; binary: 0.5% 102H) | Concentration of the target in the solution measured after different incubation time [2, 8] | Concentration of the target in the solution measured after different incubation time [2, 9] | Concentration of the target in the solution measured after different incubation time [2, 10] | Concentration of the target in the solution measured after different incubation time [2, 11] | Concentration of the target in the solution measured after different incubation time [2, 12] | Concentration of the target in the solution measured after different incubation time [2, 13] | Concentration of the target in the solution measured after different incubation time [2, 14] | Concentration of the target in the solution measured after different incubation time [2, 15] | Concentration of the target in the solution measured after different incubation time [2, 16] | Concentration of the target in the solution measured after different incubation time [2, 17] | Concentration of the target in the solution measured after different incubation time [2, 18] | Concentration of the target in the solution measured after different incubation time [2, 19] | Concentration of the target in the solution measured after different incubation time [2, 20] | Concentration of the target in the solution measured after different incubation time [2, 21] | Concentration of the target in the solution measured after different incubation time [2, 22] | LogD7.4 or Log P [4] | other results
1 | COc1ccc(-n2nc(C(N)=O)c3c2C(=O)N(c2ccc(N4CCCCC4=O)cc2)CC3)cc1 [Apixaban] | 49.8 µg/mL | 48.7 µg/mL | 48.0 µg/mL | 6.7 times | – | – | – | – | – | – | – | – | – | – | – | – | – | – | – | – | Concentration of guest molecule in solution ([2]; binary: 0.25% 102H): 127.7 µg/mL; Times that of the initial medium ([2]; binary: 0.25% 102H): 2.7 times; Concentration of guest molecule in solution ([2]; binary: 0.25% 103E5): 114.6 µg/mL; Times that of the initial medium ([2]; binary: 0.25% 103E5): 2.4 times; Concentration of guest molecule in solution ([2]; binary: 0.5% 102H): 327.6 µg/mL; Concentration of guest molecule in solution [3, 5]: 366.6 µg/mL; Times that of the initial medium [3, 5]: 7.5 times; Concentration of guest molecule in solution [3, 6]: 300.0 µg/mL; Times that of the initial medium [3, 6]: 6.3 times; Concentration of guest molecule in solution [3, 7]: 397.9 µg/mL; Times that of the initial medium [3, 7]: 8.2 times; Concentration of guest molecule in solution ([3]; ternary: 102H (0.25% where stated) + 301, carrier % not stated, 6 h): 334.8 µg/mL; Concentration of guest molecule in solution ([3]; ternary: 102H (0.25% where stated) + 302, carrier % not stated, 6 h): 312.6 µg/mL; Encapsulation rate for the guest molecule ([3]; ternary: 102H + 313 or 318): ~100%; LogP [4]: LogP 1.83
2 | CCCCC1OC(=O)c2ccccc21 (stereo not drawn) [Butylphthalide] | – | – | – | – | 555.9 µg/mL | 229.5 µg/mL | 230.7 µg/mL | 258.9 µg/mL | 245.3 µg/mL | 244.5 µg/mL | 234.7 µg/mL | 230.8 µg/mL | 233.8 µg/mL | 240.7 µg/mL | 244.6 µg/mL | 241.9 µg/mL | 242.4 µg/mL | 240.0 µg/mL | 243.7 µg/mL | 3.36 | Concentration of guest molecule measured after different incubated time ([1]; 0.5 h, pH 6.5 phosphate buffer): 252.2 µg/mL; Concentration of guest molecule measured after different incubated time ([1]; 3 h, pH 6.5 phosphate buffer): 246.4 µg/mL; Concentration of guest molecule measured after different incubated time ([1]; 6 h, pH 6.5 phosphate buffer): 246.0 µg/mL; Concentration of the target in the solution measured after different incubation time [2, 23]: 240.5 µg/mL; Concentration of the target in the solution measured after different incubation time [2, 24]: 253.9 µg/mL; Concentration of the target in the solution measured after different incubation time [2, 25]: 252.1 µg/mL; Concentration of guest molecule in solution ([3]; ternary: 0.25% 102M + 0.25% 313, 2 h): 480.3 µg/mL; Concentration of guest molecule in solution ([3]; ternary: 0.25% 102M + 0.25% 313, 6 h): 650.6 µg/mL; Concentration of guest molecule in solution ([3]; ternary: 0.25% 102M + 0.25% 313, 10 h): 1026.3 µg/mL; Concentration of guest molecule in solution ([3]; ternary: 0.25% 102M + 0.25% 314, 2 h): 1103.4 µg/mL; Concentration of guest molecule in solution ([3]; ternary: 0.25% 102M + 0.25% 314, 6 h): 406.8 µg/mL; Concentration of guest molecule in solution ([3]; ternary: 0.25% 102M + 0.25% 318, 2 h): 521.5 µg/mL; Concentration of guest molecule in solution ([3]; ternary: 0.25% 102M + 0.25% 318, 6 h): 754.1 µg/mL; Concentration of guest molecule in solution ([3]; ternary: 0.25% 102M + 0.25% 318, 10 h): 1310.2 µg/mL; Concentration of guest molecule in solution ([3]; ternary: 0.25% 102M + 0.25% 319, 2 h): 413.5 µg/mL; Concentration of guest molecule in solution ([3]; ternary: 0.25% 102M + 0.25% 319, 6 h): 643.7 µg/mL; Concentration of guest molecule in solution ([3]; ternary: 0.25% 102M + 0.25% 319, 10 h): 1125.6 µg/mL
3 | CNC(=O)c1ccc(N2C(=S)N(c3ccc(C#N)c(C(F)(F)F)c3)C(=O)C2(C)C)cc1F [Enzalutamide] | – | – | – | 1.7 times | 272.9 µg/mL | 221.8 µg/mL | 193.8 µg/mL | 90.1 µg/mL | 75.5 µg/mL | 72.2 µg/mL | 102.4 µg/mL | 88.4 µg/mL | 84.4 µg/mL | 150.2 µg/mL | 131.1 µg/mL | 128.2 µg/mL | 236.9 µg/mL | 151.4 µg/mL | 137.8 µg/mL | 4.16 | Concentration of guest molecule measured after different incubated time ([1]; 0.5 h, 0.2% SDS in pH 6.8 phosphate buffer): 62.3 µg/mL; Concentration of guest molecule measured after different incubated time ([1]; 3 h, 0.2% SDS in pH 6.8 phosphate buffer): 57.1 µg/mL; Concentration of guest molecule measured after different incubated time ([1]; 6 h, 0.2% SDS in pH 6.8 phosphate buffer): 59.0 µg/mL; Concentration of the target in the solution measured after different incubation time [2, 23]: 53.8 µg/mL; Concentration of the target in the solution measured after different incubation time [2, 24]: 45.8 µg/mL; Concentration of the target in the solution measured after different incubation time [2, 25]: 43.0 µg/mL; Times that of the initial medium ([2]; binary: 0.5% 107): 1.9 times; Concentration of guest molecule in solution ([3]; binary: 0.25% 312, 6 h): 135 µg/mL; Concentration of guest molecule in solution ([3]; binary: 0.25% 318, 6 h): 175 µg/mL; Concentration of guest molecule in solution ([3]; quaternary: 0.25% 202 (102H+107) + 0.25% 312, 6 h): 371 µg/mL; Concentration of guest molecule in solution ([3]; quaternary: 0.25% 202 (102H+107) + 0.25% 313, 6 h): 533 µg/mL; Concentration of guest molecule in solution ([3]; quaternary: 0.25% 202 (102H+107) + 0.25% 318, 6 h): 451 µg/mL; Concentration of guest molecule in solution ([3]; quaternary: 0.25% 202 (102H+107) + 0.25% 321, 6 h): 623 µg/mL
4 | CC1=C(/C=C/C(C)=C/C=C/C(C)=C/CO)C(C)(C)CCC1 [Vitamin A, vitamin A] | 57.2 µg/mL | 51.1 µg/mL | 53.0 µg/mL | – | – | – | – | 80.5 µg/mL | 80.2 µg/mL | 75.7 µg/mL | – | – | – | – | – | – | – | – | – | 4.69 | –
5 | Cc1c(C)c2c(c(C)c1O)CC[C@@](C)(CCC[C@H](C)CCC[C@H](C)CCCC(C)C)O2 [Vitamin E, vitamin E] | 20.9 µg/mL | 17.9 µg/mL | 11.9 µg/mL | – | – | – | – | 28.6 µg/mL | 57.9 µg/mL | 36.4 µg/mL | – | – | – | – | – | – | – | – | – | 10.50 | –
